Here are results for 87 molecules from a melting point compilation (Tetko et al.; mined from patent text by program, amines drawn as free bases though some values may be those of a salt).

Usually melting point stands for the temperature of the solid-liquid transition. In turn, `OC1Cc2ccccc2Sc2cc(Cl)c(F)cc21` (configuration not stated) showed a melting point of 86 to 87 °C.

`CCCOc1ccc(S(=O)(=O)N2CCC(C(=O)OCC)CC2)cc1-c1nc2cc3nc[nH]c3cc2c(=O)[nH]1` came in with a melting point of 145 to 147 °C.

As to `CCC[C@H](C)C(=O)O[C@H]1CCC=C2C=C[C@H](C)[C@H](CC[C@@H]3C[C@@H](O)CC(=O)O3)[C@H]21`, the melting point is 110 to 112 °C.

In turn, `CC(=O)c1cc(N)c(Cl)cc1Cl` returned a melting point of 74 °C.

Turning to `CCCCCCOc1ccccc1C(=N)OCC`, the melting point lay within 68 to 70 °C.

In turn, `CC(C)(C)c1ccc(-c2nc3ccc(C(=O)O)cc3[nH]2)cc1` yielded a melting point of 212 °C.

`O=C1CN=C(c2ccccc2)O1` showed a melting point of 83 to 86 °C.

For the molecule `Cc1c(SCCN(C)Cc2ccccc2)ccnc1CSc1nc2ccccc2[nH]1`, the melting point fell in the range of 110 to 112 °C.

`C(=C\c1nc(COc2ccc(CCCn3ccnc3)cc2)cs1)/c1ccccc1` registered a melting point of 129 to 130 °C.

Take `Cc1cccc(-c2ccc(C(=O)Nc3ccc4cc(CN5CCCC5)cnc4c3C)cc2)c1`: the melting point was 151 to 152 °C.

Molecule `CN(C)S(=O)(=O)c1cc(C(=O)O)cc(N2CCCC2)c1Oc1ccccc1` came in with a melting point of 214 to 215 °C.

`CCN(CC)C(=O)c1c(C(=O)NN=Cc2ccc(Cl)cc2)[nH]c2ccccc12` yielded a melting point of 255 to 257 °C.

Molecule `Nc1c(F)c(N2CCC(n3ccnn3)CC2)c(F)c2c1c(=O)c(C(=O)O)cn2C1CC1` came in with a melting point of 274 to 276 °C.

In turn, `COc1ccc(CC(=O)N(Cc2ccc(C)cc2)C2CCN(CC3CCCCC3)CC2)cc1` registered a melting point of 133 to 135 °C.

Take `CN1CCN(C2=Nc3cc(Cl)c(Cl)cc3Nc3nn(C)nc32)CC1`: the melting point turned out to be 218 °C.

With `COc1cc2c(cc1[N+](=O)[O-])NC(=O)CN(CC1CC1)C2`, the melting point was determined as 178 °C.

Turning to `COc1ccc(C(=O)Cc2c(Cl)cncc2Cl)c2c1OC(C)(C)O2`, the melting point was in the range of 133 to 134 °C.

The molecule `CC(C)(C)NC1=NS(=O)(=O)c2sc(Cl)cc2N1` yielded a melting point of 368 to 372 °C.

For `CCOc1ccc(-c2ccc3c(c2)C=C(C(=O)Nc2ccc(CN(C)C4CCOCC4)cc2)CCS3(=O)=O)cc1OCC`, the melting point fell in the range of 224 to 226 °C.

Consider `CC(C)(C)OC(=O)N[C@H](CC(=O)OCc1ccccc1)C(=O)N[C@H](CO)C(C)(C)C`, for which the melting point lay in the range of 186 to 187 °C.

The molecule `COC(=O)C1(CCCN2CCN(c3ccccc3)CC2)Oc2ccccc2OCC1O` (configuration not stated) had a melting point of 113 to 115 °C.

The molecule `CS(=O)(=O)NS(=O)(=O)c1ccc(CCCl)cc1` came in with a melting point of 149 to 151 °C.

Turning to `CCc1cc(CC)c2ccc(=O)n(CCN(C)C)c2n1`, the melting point is 59.5 to 61 °C.

`O=C(O)C(=Cc1cc(C(=O)O)c(=O)n2ccccc12)C(=O)O` came in with a melting point of over 250 °C.

As to `O=S1(=O)c2cccc3cccc(c23)N1CCCN1CC=C(c2ccccc2)CC1`, the melting point is 88 °C.

Consider `COCc1[nH]c(=O)c(C#N)c2c1CC(C)CC2` (configuration not stated), for which the melting point was in the range of 205 to 208 °C.

Regarding `NS(=O)(=O)c1cc(C(=O)O)cc(NC/C=C/CBr)c1Oc1ccccc1`, the melting point was 191 to 194 °C.

In turn, `N#Cc1cc(F)c(N)c(F)c1` returned a melting point of 110 to 111 °C.

In turn, `CN(CCc1ccccc1)C1CCN(C(=O)c2ccc(-n3cncn3)nc2)CC1` had a melting point of 85 to 86 °C.

`CCCCCCCCCCCCc1cc(C(=O)OCC)no1` showed a melting point of 34 to 36 °C.

`CCN(CC)CCOc1ccc(C2c3cc(OC)ccc3-c3ccc4ccccc4c32)cc1` (configuration not stated) gave a melting point of 109 to 115 °C.

Molecule `N#Cc1cc(N)n(-c2c(Cl)cc(C(F)(F)F)cc2Cl)n1` had a melting point of 117 to 118 °C.

For the molecule `CCOC(=O)COC(=O)CN1CCCCCC1=O`, the melting point was 33.5 to 35 °C.

On to `CN(C)C(=O)CNc1cc(-c2ccccc2)nc(-c2ccc(C(F)(F)F)cc2)n1`, for which the melting point lay in the range of 178 to 179 °C.

`O=C(CCCCOc1ccc(-c2ccc(F)cc2)cc1)NO` returned a melting point of 160 to 162 °C.

In the case of `O=C(O)CCCCCOc1nc(-c2ccccc2)c2ccccc2n1`, the melting point was 112 to 114 °C.

Consider `CCCCCN(CCC12CC3CC(CC(C3)C1)C2)C(=O)NCC(Cc1ccccc1)Cc1ccncc1` (configuration not stated), for which the melting point lay within 111 to 116 °C.

For `C#CCN(Cc1cc2c(=O)n(C)c(CN3CCN(CC)CC3)nc2cc1Cl)c1ccc(C(=O)OC(C)(C)C)cc1`, the melting point lay within 145 to 146 °C.

On to `CSc1c(C(=O)NN=Cc2ccc(Cl)cc2)[nH]c2ccccc12`, for which the melting point fell in the range of 232 to 235 °C.

Molecule `O=c1nc(-c2ccccn2)sc2ccc(OCCCO)cc12` showed a melting point of 197 to 198 °C.

As for `CC(C)(C)OC(=O)NCc1cccc(-c2nc(=O)c3ccccc3s2)n1`, the melting point was 160 to 162 °C.

Turning to `CNC(=O)C(=O)CCCCCCSc1ccc2ccccc2c1`, the melting point was in the range of 94 to 95 °C.

On to `CC(C)Oc1ccc2c(c1O)OC(C)(C)CC2=O`, for which the melting point fell in the range of 114 to 116 °C.

`COC(=O)c1sccc1S(=O)(=O)NC(=O)Nc1nc(OC)c2cc(C)oc2n1` displayed a melting point of 194 to 196 °C.

The molecule `CC1C(=O)N(c2ccccc2)N=C1N` (configuration not stated) came in with a melting point of 147 °C.

`Nc1ncn(C[C@@H](CO)OCP(=O)(O)O)c(=O)n1` showed a melting point of 175 to 178 °C.

Molecule `CN(CCc1ccc([N+](=O)[O-])cc1)C1CCN(c2ccc([N+](=O)[O-])cc2)CC1` yielded a melting point of 97 to 98 °C.

Consider `CC1(C)O[C@H]2CC(O)=C(O)C(=O)[C@H]2O1`, for which the melting point fell in the range of 153 to 154 °C.

`COc1cccc([C@H]2O[C@H](CC(N)=O)C(=O)N(CC(C)(C)C)c3ccc(Cl)cc32)c1OC`: the melting point was in the range of 170 to 172 °C.

On to `CCOc1cccc(NC(=O)NS(=O)(=O)c2ccc(C)cc2)n1`, for which the melting point lay within 197 to 199 °C.

In turn, `O=C1NC(=S)SC1=Cc1ccc(C(F)(F)F)o1` showed a melting point of 174 °C.

`O=C(NC1=NCCCC1)Nc1ccccc1` registered a melting point of 153 to 154 °C.

`NS(=O)(=O)c1ccc(-n2nc(C(F)(F)F)cc2-c2ccc(-c3ccco3)cc2)cc1Cl`: the melting point was determined as 193 °C.

Molecule `CC(=NOCC(N)=O)c1ccc(Cl)c(Cl)c1` came in with a melting point of 111 to 112 °C.

`CC(C)c1cc(C(=O)CNc2ccc(C(=O)O)cc2)oc1C(C)C` came in with a melting point of 184 to 186 °C.

Take `COc1ccc(Cl)cc1C(=O)NCCc1ccc(Br)c(S(N)(=O)=O)c1`: the melting point worked out at 190 °C.

The molecule `COc1cc2ncc(C#N)c(Nc3cc(Cl)ccc3O)c2cc1OC` came in with a melting point of over 250 °C.

Regarding `CCOC(=O)C1CCNCC1c1nc2cc(-c3ccc(OC)cc3)nnc2c2ccccc12` (configuration not stated), the melting point lay in the range of 160 to 161 °C.

The molecule `Cc1cccc(Cl)c1S(=O)(=O)NC(=O)n1nc(Br)n(N(C)C)c1=O` yielded a melting point of 163 °C.

Turning to `CC(C)(C)N(Cc1ccccc1)NC(=O)c1ccco1`, the melting point was 152 °C.

In turn, `Cc1cc(-c2cccc(C3=Nc4ccc(-n5cccc5)cc4NC(=O)C3)c2)ccn1` yielded a melting point of 206 °C.

Molecule `CN1C(=O)N(Cc2cc(C(F)(F)F)cc(C(F)(F)F)c2)CC1(CCO)c1ccc(Cl)c(Cl)c1` (configuration not stated) returned a melting point of 96 °C.

Consider `CCC(C)n1nc(C)n(-c2ccc(N3CCCN(c4ccc(C(=O)OC)cc4)CC3)cc2)c1=O` (configuration not stated), for which the melting point is 152 to 153 °C.

As to `COc1ccc(Nc2nc(NC(=O)C(C)(C)C)nc3[nH]c4ccccc4c23)cc1`, the melting point fell in the range of 219 to 220 °C.

Regarding `Cc1cc(C)c(Nc2nc(C)ncc2S(=O)(=O)c2ccc(-c3cncnc3)cc2)c(C)c1`, the melting point fell in the range of 210 to 212 °C.

`COc1cccc(CCNC2(c3ccccc3Cl)C(=O)Nc3ccc(Cl)cc32)c1` (configuration not stated) returned a melting point of 155 to 160 °C.

For the molecule `CS(=O)(=O)N1CCN(C(=O)Cl)C1=O`, the melting point stood at 178 °C.

The molecule `CCC(O)C(O)c1ccc(OCc2ccc3ccccc3c2)c(OC)c1` (configuration not stated) came in with a melting point of 120 °C.

In turn, `CCN1c2ncccc2C(=O)N(C)c2ccc(-c3cnn(C)c3)nc21` registered a melting point of 65 to 67 °C.

`O=C(O)[C@@H]1C[C@@H](O)CN1C(=O)OCc1ccccc1` yielded a melting point of 106 to 107 °C.

For `COc1ccc(C(=O)N2CCC[C@H]2C(OC)OC)cc1`, the melting point lay within 51 to 52.5 °C.

The molecule `O=C(O)Cc1nn(Cc2nc3cc(F)cc(F)c3s2)c(=O)c2ccccc12` displayed a melting point of 178 °C.

`O=c1ccc2ccc(OCCCN3CCC(C(O)(c4ccc(F)cc4)c4ccc(F)cc4)CC3)cc2o1` displayed a melting point of 99 to 120 °C.

`CCOC(=O)c1ccc(N(C(=O)OC(C)(C)C)N(C)C(C)=O)cc1` yielded a melting point of 82 °C.

In turn, `CCCCCCCCCC[C@H](O)c1ccc2ccccc2c1` had a melting point of 53 to 54 °C.

In the case of `Cc1ccc2nc3[nH]c(=O)[nH]c3cc2c1C`, the melting point is over 300 °C.

Molecule `CCCCCCc1ccc(-n2c(-c3ccc(Br)cc3)ccc2-c2ccc(Br)cc2)cc1` yielded a melting point of 198 to 199 °C.

`COc1ccc(C2=C(c3ccc(OC4CCCCO4)cc3)CCCc3cc(OC4CCCCO4)ccc32)cc1` (configuration not stated) gave a melting point of 160 to 161 °C.

The molecule `COc1cc(C(C)(C)CNC(=O)c2ccccc2)cc2c1OC(C)(C)C2` showed a melting point of 109 to 110 °C.

Molecule `COc1cc(Br)c(Br)cc1C=NNC(=N)NN=Cc1cc(Br)c(Br)cc1OC` had a melting point of 265 to 267 °C.

`CCCCN(CCCC)c1ccc(C=CC2=CC(=CC=CC3=C(C#N)C(=C(C#N)C#N)OC3(c3ccccc3)C(F)(F)F)CC(C)(C)C2)c(OC)c1` (configuration not stated) gave a melting point of 164 to 166 °C.

Molecule `COc1ccc(Nc2nc(-c3ccccc3)cc(N3CCC(OC(=O)CCC(=O)O)CC3)n2)cc1Cl` yielded a melting point of 218 to 220 °C.

Molecule `CC(=O)Nc1cc(F)c(OCC(F)F)cc1[N+](=O)[O-]` came in with a melting point of 72 to 74 °C.

Turning to `CCOC(=O)c1c(C(F)(F)F)nc(C(F)(F)F)c(C(=O)O)c1OCC`, the melting point was in the range of 115 to 117 °C.

In the case of `CCOC(=O)CCc1ccc(OCC(=O)N(CC)CC)cc1Oc1ncc(C(F)(F)F)cc1Cl`, the melting point was in the range of 88.5 to 89 °C.

On to `CC(=O)O[C@H]1[C@H](OC(C)=O)[C@@H](CCl)OC[C@@H]1OC(C)=O`, for which the melting point lay in the range of 129 to 131 °C.

Turning to `CC(=O)Oc1cccc2c(-c3cccs3)c3cccc(OC(C)=O)c3c(OC(C)=O)c12`, the melting point amounted to 260 °C.
